# Assay: Powder particle size by Helos laser particle size analyzer with Quixel disperser
# Assay type: physicochemical
# Method: The powders particle size was measured using a Helos laser particle size analyzer equipped with a Quixel disperser (instrument and disperser manufactured and sold by the company Sympatec GmbH of Clausthal-Zellerfeld, Germany), using ultrapure milli-Q water as the dispersing medium. The sample was first dispersed in milli-Q water by adding a few drops of Tween® 80 (polyethylene glycol sorbitan monooleate, sold by Merck) and placed in a sonicating bath for 5 min, then the suspension was added to the dispersing medium loaded into the instrument until an optical density value OD=4-15% is obtained. The measurement (30 s background +30 s measurement) was performed by operating under continuous sonication with the recirculation pump set at 20%.
structure (smiles),measurement,setting,value
"C[C@]12CCC(=O)C=C1[C@@H]1C[C@@H]1[C@H]1[C@@H]3[C@@H]4C[C@@H]4[C@@]4(CCC(=O)O4)[C@@]3(C)CC[C@@H]12 [Drospirenone, 17β-hydroxy-6β, 7β; 15, 16β-dimethylene-3-oxo-17α-pregn-4-ene-21-carboxylic acid γ-lactone]",size of all particles,"Crystalline Form I powder of Example 3 (process of the invention), FIG. 9, cumulative curve",lower than 110 μm
same,size of the largest particles present,"Crystalline Form I powder of Example 4 (comparative), FIG. 10",over 150 μm
same,peak of the sample particles size distribution,"Crystalline Form I powder of Example 4 (comparative, no transformation to Form II), FIG. 10",about 70 μm

# — patent publication US12606591B2, “Process for the preparation of drospirenone as a fine powder through a double change of crystalline form” (INDUSTRIALE CHIMICA S.R.L., priority 2021, dated 2026)
